Assays:
mouse = conditions: cited from earlier work
[1] = frequent use and overdosing; cited from earlier work
[2] = Tasting of the substance in 11% sugar solution by a group of testers (sensory profile); type: in vivo; conditions: for sensory profile (tasting): approx. 5 ml swallowed, 6 to 8 testers; for flavour impression in sensory testing: concentration not given
Description: The substance to be tasted is dissolved in ethanol and the ethanolic solution then diluted with an 11% sugar solution (final concentration: c). Approx. 5 ml of the sugar solution at a time are swallowed for the tasting. If the threshold value of the substance is known, a value just above the threshold value is chosen for the tasting. A group of 6 to 8 testers tasted the solutions.

[3] = capsaicin as reference; cited from earlier work

Row | SMILES | sensory profile (tasting) ([2]; c=10 ppm in 11% sugar solution) | flavour impression in sensory testing [2] | other results
1 | COc1cc(CNC(=O)CCCC/C=C/C(C)C)ccc1O [capsaicin, N-(4-hydroxy-3-methoxybenzyl)-8-methyl-(6E)-nonenoic acid amide] |  |  | LD50 (mouse oral) (mouse): 47 mg; chronic toxicity [1]: chronic gastritis, kidney and liver damage
2 | CCCCC/C=C\C=C\C(=O)NCC(C)C [cis-pellitorine, 2E,4Z-decadienoic acid-N-isobutylamide] | pronounced feeling of warmth, immediately pungent, typical alcohol pungency | pleasant, extremely pungent and warm flavour impression, which is reminiscent of ethanol and is relatively long lasting | 
3 | COc1cc(CNC(=O)CCCCCCC(C)C)ccc1O [dihydrocapsaicin] |  |  | sensory profile (tasting) ([2]; c=100 ppb in 11% sugar solution): slightly delayed onset of effect in the pharynx, burning, aggressive, no heat development
4 | O=C(/C=C/C=C/c1ccc2c(c1)OCO2)N1CCCCC1 [piperine, 1-piperoyl piperidine] |  |  | relative pungency in comparison to capsaicin [3]: approx. 1%
5 | CCCCC/C=C/C=C/C(=O)NCC(C)C [trans-pellitorine, 2E,4E-decadienoic acid-N-isobutylamide] | saliva-stimulating, oily, fruity, slightly tingling, not pungent | primarily numbing | 

Reference: patent publication US7482479B2, “Production of cis-pellitorin and use as a flavouring” (Symrise GmbH & Co., KG, priority 2002, dated 2009)
